Read-outs that look alike come from different tables or passages of the source.
Tests used:
[1] = in-vitro plasma protein binding, mice; type: in vitro ADME; settings: mouse, 0.05 to 50 μg/mL
Experimental: The in-vitro plasma protein binding of the drug of Formula I was independent of concentration over the concentration range of 0.05 to 50 μg/mL and was 87.2-89.1% in mice; 87.6-89.2% in rats; 88.3-92.0% in rabbits; […] in dogs; 97.0-97.6% in monkeys; and 96.3-96.6% in humans.

2D6 = 2D6 (Homo sapiens, UniProt P10635); test: inhibition of human liver cytochrome P450 2D6; type: in vitro ADME; settings: human liver cytochrome P450 isoenzyme
2C19 = 2C19 (Homo sapiens, UniProt P33261); test: inhibition of human liver cytochrome P450 2C19; type: in vitro ADME; settings: human liver cytochrome P450 isoenzyme
CYP1A2 = biological target: T1, CYP1A2 (Homo sapiens, UniProt P05177); test: inhibition of human liver cytochrome P450 CYP1A2; type: in vitro ADME; settings: human liver cytochrome P450 isoenzyme
T1 sequence (P05177 1-516): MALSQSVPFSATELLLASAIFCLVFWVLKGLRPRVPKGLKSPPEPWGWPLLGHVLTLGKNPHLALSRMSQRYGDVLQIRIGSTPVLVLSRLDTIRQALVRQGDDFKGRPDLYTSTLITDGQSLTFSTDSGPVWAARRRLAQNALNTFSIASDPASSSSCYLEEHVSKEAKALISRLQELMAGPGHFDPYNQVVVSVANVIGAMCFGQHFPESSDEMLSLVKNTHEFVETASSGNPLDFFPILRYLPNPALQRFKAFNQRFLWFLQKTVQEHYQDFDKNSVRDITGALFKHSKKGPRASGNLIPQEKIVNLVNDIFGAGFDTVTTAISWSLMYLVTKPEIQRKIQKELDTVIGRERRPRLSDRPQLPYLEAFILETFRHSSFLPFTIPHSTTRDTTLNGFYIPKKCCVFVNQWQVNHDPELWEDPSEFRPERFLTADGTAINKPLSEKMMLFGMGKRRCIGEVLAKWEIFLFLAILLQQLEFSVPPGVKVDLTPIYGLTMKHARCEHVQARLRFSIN

[2] = Example 2 multi-dose study: pharmacokinetics; type: in vivo, human; settings: for Tmax at 14 days: read-out: mean time to maximum plasma concentration (Tmax); for Cmax at 14 days: read-out: mean maximum plasma concentration (Cmax)
Experimental: (§1) A double-blind, placebo-controlled, dose rising study was performed in healthy male and female volunteers. Each dose cohort received either placebo or active treatment as an oral suspension once daily for fourteen (14) consecutive days. The dose of study drug was prepared and administered as described in Example 1 above. The doses administered in this multiple dose study were based on the safety and tolerability assessment of the doses administered in Example 1.
(§2) Based on the results of Example 1, the starting dose was 3 mg. Based on the safety and tolerability results from Example 1, the dose was scheduled to be escalated to 10, 20, 50 and 100 mg per day for 14 consecutive days. Successive dose cohorts were not treated until the previous cohort completed 14 days of treatment and the safety follow-up visit on Day 21.

[3] = 4-week repeat dose toxicity in cynomolgus monkey; type: in vivo
human c-Mpl-Ba/F3 cells = test: proliferation of cultured human c-Mpl-Ba/F3 cells; type: cell-based; settings: concentration-dependent; maximum effect similar to that of rhTPO
liver microsomal enzymes = test: metabolism by human liver microsomal enzymes; type: in vitro ADME
platelet count = test: Example 2 multi-dose study: pharmacodynamics (platelet count); type: in vivo, human
Experimental: as §1, §2

[4] = both sexes, human, in vivo, oral, 3 mg once daily, Study Day 14, mean
[5] = both sexes, human, in vivo, oral, 10 mg once daily, Study Day 14, mean
[6] = both sexes, human, in vivo, oral, 20 mg once daily, Study Day 14, simulated data at steady-state

2D6, sequence (P10635 whole entry): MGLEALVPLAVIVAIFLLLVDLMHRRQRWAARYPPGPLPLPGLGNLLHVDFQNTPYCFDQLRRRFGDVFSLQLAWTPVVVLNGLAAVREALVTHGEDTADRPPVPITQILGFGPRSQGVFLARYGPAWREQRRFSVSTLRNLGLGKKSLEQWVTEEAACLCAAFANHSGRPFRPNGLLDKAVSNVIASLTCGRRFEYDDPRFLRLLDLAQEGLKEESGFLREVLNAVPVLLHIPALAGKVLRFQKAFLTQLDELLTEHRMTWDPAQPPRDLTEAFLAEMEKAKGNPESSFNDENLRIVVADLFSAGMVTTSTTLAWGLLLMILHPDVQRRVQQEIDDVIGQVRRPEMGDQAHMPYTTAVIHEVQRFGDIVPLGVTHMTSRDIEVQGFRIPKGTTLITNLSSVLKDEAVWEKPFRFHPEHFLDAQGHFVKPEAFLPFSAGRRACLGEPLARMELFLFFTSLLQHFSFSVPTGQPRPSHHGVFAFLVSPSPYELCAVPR
2C19, sequence (P33261 whole entry): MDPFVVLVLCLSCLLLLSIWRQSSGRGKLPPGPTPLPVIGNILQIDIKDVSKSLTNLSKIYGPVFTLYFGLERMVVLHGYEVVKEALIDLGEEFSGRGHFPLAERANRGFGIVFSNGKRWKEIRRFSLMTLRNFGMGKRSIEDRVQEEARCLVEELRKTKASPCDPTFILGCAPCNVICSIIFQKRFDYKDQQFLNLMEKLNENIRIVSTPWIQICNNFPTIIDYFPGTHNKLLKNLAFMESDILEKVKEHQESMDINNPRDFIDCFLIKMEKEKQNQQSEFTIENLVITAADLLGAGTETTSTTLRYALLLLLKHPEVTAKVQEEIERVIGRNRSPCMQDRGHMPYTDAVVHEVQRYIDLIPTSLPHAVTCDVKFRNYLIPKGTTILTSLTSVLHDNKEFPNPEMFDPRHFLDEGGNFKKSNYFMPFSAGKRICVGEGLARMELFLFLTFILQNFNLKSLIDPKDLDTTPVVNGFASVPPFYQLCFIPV

O=C(Nc1nc(-c2cc(Cl)cs2)c(N2CCN(C3CCCCC3)CC2)s1)c1cnc(N2CCC(C(=O)O)CC2)c(Cl)c1 [Formula I, 1-(3-chloro-5-{[4-(4-chlorothiophen-2-yl)-5-(4-cyclohexylpiperazin-1-yl)thiazol-2-yl]carbamoyl}pyridin-2-yl)piperadine-4-carboxylic acid]
fraction unbound [1]: 0.109 to 0.128
inhibition of CYP2D6 (2D6): did not inhibit
inhibition of CYP2C19 (2C19): did not inhibit
inhibition of CYP1A2 (CYP1A2): did not inhibit
AUC(0-t) ([2]; both sexes, human, in vivo, oral, 3 mg, 3 mg once daily, Study Day 1, mean, read-out: AUC0-last): 235 ng·h/mL
Tmax ([2]; both sexes, human, in vivo, oral, 3 mg, 3 mg once daily, Study Day 1, median): 6 h
AUC(0-t) ([2]; both sexes, human, in vivo, oral, 3 mg, 3 mg once daily, Study Day 14, mean, read-out: AUC0-last): 659 ng·h/mL
Tmax ([2]; both sexes, human, in vivo, oral, 3 mg, 3 mg once daily, Study Day 14, median): 6 h
AUC(0-t) ([2]; both sexes, human, in vivo, oral, 10 mg, 10 mg once daily, Study Day 1, mean, read-out: AUC0-last): 841 ng·h/mL
Tmax ([2]; both sexes, human, in vivo, oral, 10 mg, 10 mg once daily, Study Day 1, median): 6 h
AUC(0-t) ([2]; both sexes, human, in vivo, oral, 10 mg, 10 mg once daily, Study Day 14, mean, read-out: AUC0-last): 2360 ng·h/mL
Tmax ([2]; both sexes, human, in vivo, oral, 10 mg, 10 mg once daily, Study Day 14, median): 4.5 h
AUC(0-t) ([2]; both sexes, human, in vivo, oral, 20 mg, 20 mg once daily, Study Day 1, mean, read-out: AUC0-last): 1960 ng·h/mL
Tmax ([2]; both sexes, human, in vivo, oral, 20 mg, 20 mg once daily, Study Day 1, median): 6 h
Tmax ([2]; both sexes, human, in vivo, oral, 20 mg, 20 mg once daily, Study Day 14, median, simulated data at steady-state): 6 h
AUC(0-t) ([2]; both sexes, human, in vivo, oral, 20 mg, 20 mg once daily, Study Day 14, simulated data at steady-state, read-out: AUC0-last): 3610 ng·h/mL
AUC(0-inf) [2, 4]: 804 ng·h/mL
half-life [2, 4]: 18.2 h
Cmax ([2]; both sexes, human, in vivo, oral, 3 mg once daily, Study Day 14, mean, read-out: Cmax, ss): 25.6 ng/mL
AUC(0-inf) [2, 5]: 2870 ng·h/mL
half-life [2, 5]: 18.1 h
Cmax ([2]; both sexes, human, in vivo, oral, 10 mg once daily, Study Day 14, mean, read-out: Cmax, ss): 94.1 ng/mL
AUC(0-inf) [2, 6]: 7150 ng·h/mL
half-life [2, 6]: 20.8 h
Cmax ([2]; both sexes, human, in vivo, oral, 20 mg once daily, Study Day 14, simulated data at steady-state, read-out: Cmax, ss): 205 ng/mL
half-life at 14 days ([2]; both sexes, human, in vivo, oral, multi-dose study, independent of dose): 18 to 21 h
Cmax ([2]; both sexes, human, in vivo, 3 mg once daily oral suspension, Study Day 1, mean, read-out: Cmax): 14.8 ng/mL
Cmax ([2]; both sexes, human, in vivo, 10 mg once daily oral suspension, Study Day 1, mean, read-out: Cmax): 53.2 ng/mL
Cmax ([2]; both sexes, human, in vivo, 20 mg once daily oral suspension, Study Day 1, mean, read-out: Cmax): 121 ng/mL
AUC(0-t) ([2]; both sexes, human, plasma, oral, 3 mg, 3 mg dose administered over about fourteen (14) days, human, read-out: mean AUC0-last): ~659 ng·h/mL
Tmax at 14 days ([2]; both sexes, human, plasma, oral, 3 mg, 3 mg dose administered over about fourteen (14) days, human): ~6 h
AUC(0-t) ([2]; both sexes, human, plasma, oral, 10 mg, 10 mg dose administered over about fourteen (14) days, human, read-out: mean AUC0-last): ~2360 ng·h/mL
Tmax at 14 days ([2]; both sexes, human, plasma, oral, 10 mg, 10 mg dose administered over about fourteen (14) days, human): ~4.4 h
AUC(0-t) ([2]; both sexes, human, plasma, oral, 20 mg, 20 mg dose administered over about fourteen (14) days, human, Table 3: simulated data at steady-state, read-out: mean AUC0-last): ~3610 ng·h/mL
Tmax at 14 days ([2]; both sexes, human, plasma, oral, 20 mg, 20 mg dose administered over about fourteen (14) days, human, Table 3: simulated data at steady-state): ~5.5 h
Cmax at 14 days ([2]; both sexes, plasma, oral, 3 mg dose administered over about fourteen (14) days, human): ~25 ng/mL
Cmax at 14 days ([2]; both sexes, plasma, oral, 10 mg dose administered over about fourteen (14) days, human): ~94 ng/mL
Cmax at 14 days ([2]; both sexes, plasma, oral, 20 mg dose administered over about fourteen (14) days, human, Table 3: simulated data at steady-state): ~204 ng/mL
dose proportionality of Cmax and AUC ([2]; following single and repeat administration, 3 mg to 20 mg): increased proportionally with respect to dose
changes in the gastric mucosa ([3]; cynomolgus monkey, repeat dosing 4 weeks, 3, 10, 100, 1000 mg/kg/day): necrosis of the surface epithelium and atrophy of the fundic glands and edema and inflammatory infiltrates in the lamia propria of the fundus
muscle degeneration/necrosis in femoral, lower thigh or multifides muscles ([3]; cynomolgus monkey, repeat dosing 4 weeks, lesions partly present before dosing and in a control): one or more monkeys in all dose groups
CK and aldolase levels ([3]; cynomolgus monkey, elevated levels also present prior to the first dose): Elevated levels of CK and aldolase
reversibility of gastric mucosa changes ([3]; high dose monkeys, on drug withdrawal): not entirely
proliferation of cultured human c-Mpl-Ba/F3 cells (human c-Mpl-Ba/F3 cells): stimulates the proliferation
metabolism by liver microsomal enzymes (liver microsomal enzymes): does not appear to be metabolized
dose-concentration-response relationship for changes in platelet count (platelet count; 3 mg to 20 mg dose range, repeat dosing): linear increases in platelet counts over baseline
day by which the revised PD limit (>500,000 platelets) occurred in all six (6) subjects (platelet count; 20 mg cohort): 10 to 11 days
dose cohort in which the original PD limit (five subjects with >50% increase in platelet count) was reached (platelet count; once daily dosing): 10 mg
platelet counts following repeat administration (platelet count; repeat administration of 10 mg and 20 mg): Statistically significant increases in platelet counts
